Data reported in US20070191398A1, “Fungicidal mixtures” (priority 2004, published 2007).

Test system: Plasmopara viticola
Assay: persistency against peronospora of grapevines caused by Plasmopara viticola, 7-day protective application
Assay type: in vivo, Plasmopara viticola on potted vines
Settings: individual active compound, 7-day protective application on grapevine leaves
Protocol: The active compounds, separately or jointly, were prepared as a stock solution comprising 0.25% by weight of active compound in acetone or DMSO. 1% by weight of the emulsifier Uniperol® EL (wetting agent having emulsifying and dispersant action based on ethoxylated alkylphenols) was added to this solution, and the mixture was diluted with water to the desired concentration.
Use example—persistency against peronospora of grapevines caused by Plasmopara viticola, 7-day protective application Leaves of potted vines were sprayed to runoff point with an aqueous suspension having the concentration of active compound stated below. 7 days later, the undersides of the leaves were inoculated with an aqueous sporangia suspension of Plasmopara viticola. The grapevines were then initially placed in a water-vapor-saturated chamber at 24° C. for 48 hours and then in a greenhouse at 20-30° C. for 5 days. After this period of time, the plants were again placed in a humid chamber for 16 hours to accelerate sporangiophore eruption. The extent of the development of the disease on the undersides of the leaves was then determined visually.
The visually determined percentages of infected leaf areas were converted into efficacies in % of the untreated control:
The efficacy (E) is calculated as follows using Abbot's formula: E=(1−α/β)·100 α corresponds to the fungicidal infection of the treated plants in % and β corresponds to the fungicidal infection of the untreated (control) plants in % An efficacy of 0 means that the infection level of the treated plants corresponds to that of the untreated control plants; an efficacy of 100 means that the treated plants were not infected.
The expected efficacies of mixtures of active compounds were determined using Colby's formula (Colby, S. R. “Calculating synergistic and antagonistic responses of herbicide combinations”, Weeds, 15, 20-22, 1967) and compared with the observed efficacies.
Colby's formula: E=x+y−x·y/100
E expected efficacy, expressed in % of the untreated control, when using the mixture of the active compounds A and B at the concentrations a and b x efficacy, expressed in % of the untreated control, when using the active compound A at the concentration a y efficacy, expressed in % of the untreated control, when using the active compound B at the concentration b

SMILES | Efficacy in % of the untreated control (2.5 ppm in the spray liquor) [%] | Efficacy in % of the untreated control (5 ppm in the spray liquor) [%] | Efficacy in % of the untreated control (1 ppm in the spray liquor) [%] | Efficacy in % of the untreated control (10 ppm in the spray liquor) [%]
O=C(NCc1ncc(C(F)(F)F)cc1Cl)c1c(Cl)cccc1Cl [II, 2,6-dichloro-N-(3-chloro-5-trifluoromethylpyridin-2-ylmethyl)-benzamide] | 65 | 76 | – | –
CC1CCN(c2c(-c3c(F)cc(F)cc3F)c(Cl)nc3ncnn23)CC1 [I, 5-chloro-7-(4-methylpiperidin-1-yl)-6-(2,4,6-trifluorophenyl)-[1,2,4]tri-azolo[1,5-a]pyrimidine] | – | 0 | 0 | 6
